Source: ChEMBL document CHEMBL3875218, “Bifunctional conjugates with potent inhibitory activity towards cyclooxygenase and histone deacetylase” (Bioorg Med Chem, 2017)
Active and inactive are the calls of the source. The rule behind the calls is not given here.

Legend:
[1] = biological target: T1, Prostaglandin G/H synthase 2 (Homo sapiens) (UniProt P35354); experiment: Inhibition of recombinant human COX2 at 10 uM using arachidonic acid as substrate preincubated for 15 mins followed by substrate addition for 2 mins by Cayman based fluorescence assay
T1 sequence (whole entry): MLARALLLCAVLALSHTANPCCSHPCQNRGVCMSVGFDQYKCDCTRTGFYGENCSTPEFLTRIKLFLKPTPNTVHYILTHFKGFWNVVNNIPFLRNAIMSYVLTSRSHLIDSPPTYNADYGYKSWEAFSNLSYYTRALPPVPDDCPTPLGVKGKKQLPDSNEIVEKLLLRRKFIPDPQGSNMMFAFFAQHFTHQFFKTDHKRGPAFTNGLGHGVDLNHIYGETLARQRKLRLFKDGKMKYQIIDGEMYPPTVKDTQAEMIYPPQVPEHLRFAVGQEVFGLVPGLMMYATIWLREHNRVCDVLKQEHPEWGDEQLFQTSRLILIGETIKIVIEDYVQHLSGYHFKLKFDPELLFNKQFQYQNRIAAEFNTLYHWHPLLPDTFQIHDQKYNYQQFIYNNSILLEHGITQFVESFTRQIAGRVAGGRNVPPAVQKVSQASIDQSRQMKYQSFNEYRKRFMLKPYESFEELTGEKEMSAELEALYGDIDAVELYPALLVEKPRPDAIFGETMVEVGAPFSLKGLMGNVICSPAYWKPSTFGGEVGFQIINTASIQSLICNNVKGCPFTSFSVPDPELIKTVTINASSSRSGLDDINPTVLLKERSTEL

Histone deacetylase 1 = Histone deacetylase 1 (Homo sapiens, UniProt Q13547); experiment: Inhibition of HDAC1 (unknown origin) after 24 hrs by SAMDI mass spectroscopic analysis
[2] = Cytotoxicity against human MCF7 cells assessed as cell growth inhibition at 100 uM after 72 hrs by MTT assay; type: functional; details: MCF7, 72 h, read-out: GI
Histone deacetylase 8 = biological target: T2, Histone deacetylase 8 (Homo sapiens, UniProt Q9BY41); experiment: Inhibition of HDAC8 (unknown origin) after 2.5 hrs by SAMDI mass spectroscopic analysis
T2 sequence (Q9BY41 whole entry): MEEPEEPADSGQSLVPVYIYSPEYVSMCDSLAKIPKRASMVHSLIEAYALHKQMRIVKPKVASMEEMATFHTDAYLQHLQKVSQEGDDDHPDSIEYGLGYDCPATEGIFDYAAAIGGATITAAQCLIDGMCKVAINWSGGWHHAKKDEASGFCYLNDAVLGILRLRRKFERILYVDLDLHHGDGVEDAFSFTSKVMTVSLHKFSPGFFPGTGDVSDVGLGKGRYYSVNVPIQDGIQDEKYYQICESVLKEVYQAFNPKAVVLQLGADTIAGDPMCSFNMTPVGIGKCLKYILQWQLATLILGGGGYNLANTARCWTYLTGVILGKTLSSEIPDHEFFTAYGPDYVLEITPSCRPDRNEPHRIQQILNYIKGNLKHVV

Histone deacetylase 3 = Histone deacetylase 3 (Homo sapiens, UniProt O15379); experiment: Inhibition of HDAC3 (unknown origin) after 5 hrs by SAMDI mass spectroscopic analysis
Histone deacetylase 2 = Histone deacetylase 2 (Homo sapiens, UniProt Q92769); experiment: Inhibition of HDAC2 (unknown origin) after 24 hrs by SAMDI mass spectroscopic analysis
[3] = Cytotoxicity against human HCT116 cells assessed as cell growth inhibition after 72 hrs by MTT assay; type: functional, cell-based; details: HCT-116, 72 h
[4] = biological target: T3, Protein deacetylase HDAC6 (Homo sapiens, UniProt Q9UBN7); experiment: Inhibition of HDAC6 (unknown origin) after 20 hrs by SAMDI mass spectroscopic analysis
T3 sequence (Q9UBN7 whole entry): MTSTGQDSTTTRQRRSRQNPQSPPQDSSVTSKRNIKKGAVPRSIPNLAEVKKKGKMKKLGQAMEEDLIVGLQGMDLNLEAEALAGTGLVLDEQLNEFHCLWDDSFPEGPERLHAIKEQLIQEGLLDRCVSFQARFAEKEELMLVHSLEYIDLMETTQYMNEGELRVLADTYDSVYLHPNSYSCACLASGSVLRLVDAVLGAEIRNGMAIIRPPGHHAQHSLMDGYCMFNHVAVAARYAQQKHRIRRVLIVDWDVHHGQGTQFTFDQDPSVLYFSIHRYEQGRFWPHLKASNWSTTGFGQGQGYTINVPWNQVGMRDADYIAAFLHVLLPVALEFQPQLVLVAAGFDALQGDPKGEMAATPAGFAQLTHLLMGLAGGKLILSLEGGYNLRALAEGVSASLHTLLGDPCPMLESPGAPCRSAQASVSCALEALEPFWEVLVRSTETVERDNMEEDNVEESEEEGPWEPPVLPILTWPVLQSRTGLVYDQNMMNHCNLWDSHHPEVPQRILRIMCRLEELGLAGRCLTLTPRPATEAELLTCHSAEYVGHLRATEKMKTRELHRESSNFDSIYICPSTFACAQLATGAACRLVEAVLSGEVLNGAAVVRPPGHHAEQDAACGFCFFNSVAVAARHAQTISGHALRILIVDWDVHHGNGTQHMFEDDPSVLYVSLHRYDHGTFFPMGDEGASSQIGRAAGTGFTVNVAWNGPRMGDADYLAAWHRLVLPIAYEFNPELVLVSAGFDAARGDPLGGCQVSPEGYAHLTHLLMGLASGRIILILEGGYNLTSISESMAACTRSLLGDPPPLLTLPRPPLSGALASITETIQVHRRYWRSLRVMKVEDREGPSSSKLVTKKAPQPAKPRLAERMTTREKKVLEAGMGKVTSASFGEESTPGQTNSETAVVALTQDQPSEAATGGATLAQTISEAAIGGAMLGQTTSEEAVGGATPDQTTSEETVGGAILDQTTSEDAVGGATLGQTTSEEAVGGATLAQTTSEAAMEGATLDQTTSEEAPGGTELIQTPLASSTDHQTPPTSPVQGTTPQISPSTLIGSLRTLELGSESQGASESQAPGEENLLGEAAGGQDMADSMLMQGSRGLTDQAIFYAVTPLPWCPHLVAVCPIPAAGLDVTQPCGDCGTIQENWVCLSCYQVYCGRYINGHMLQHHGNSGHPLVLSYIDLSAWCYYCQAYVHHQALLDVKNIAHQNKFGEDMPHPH

LNCaP [5] = details: Homo sapiens, at 10 µM
Description: Inhibition of HDAC in human LNCAP cells assessed as down regulation of androgen receptor expression at 10 uM after 24 hrs by Western blot analysis

LNCaP [6] = experiment: Induction of cell cycle arrest in human LNCAP cells assessed as accumulation at greater G2 phase at 40 uM after 24 hrs by propidium iodide staining based FACS analysis (reference value: 0.20%); type: functional
LNCaP [7] = experiment: Induction of cell cycle arrest in human LNCAP cells assessed as accumulation at lesser G1 phase at 40 uM after 24 hrs by propidium iodide staining based FACS analysis (reference value: 1.59%); type: functional
LNCaP [8] = experiment: Induction of cell cycle arrest in human LNCAP cells assessed as accumulation at S phase at 40 uM after 24 hrs by propidium iodide staining based FACS analysis (reference value: […]); type: functional
LNCaP [9] = experiment: Induction of cell cycle arrest in human LNCAP cells assessed as accumulation at G1 phase at 40 uM after 24 hrs by propidium iodide staining based FACS analysis (reference value: 69.5%); type: functional
BEAS2B = details: Homo sapiens, at 1 µM
Description: Inhibition of HDAC in human BEAS2B cells assessed as reduction of NTHi-induced NFkappaB activation at 1 uM preincubated for 1 hr followed by NTHi stimulation for 5 hrs by luciferase reporter gene assay

LNCaP [10] = experiment: Induction of cell cycle arrest in human LNCAP cells assessed as accumulation at G1 phase at 2.5 uM after 24 hrs by propidium iodide staining based FACS analysis (reference value: 69.5%); type: functional
[11] = biological target: T4, Prostaglandin G/H synthase 2 (Homo sapiens, UniProt P35354); experiment: Inhibition of recombinant human COX2 using arachidonic acid as substrate preincubated for 15 mins followed by substrate addition for 2 mins by Cayman based fluorescence assay
T4 sequence (P35354 whole entry): T1 sequence (whole entry)

LNCaP [12] = experiment: Induction of cell cycle arrest in human LNCAP cells assessed as accumulation at S phase at 2.5 uM after 24 hrs by propidium iodide staining based FACS analysis (reference value: […]); type: functional
LNCaP [13] = experiment: Induction of cell cycle arrest in human LNCAP cells assessed as accumulation at greater G2 phase at 2.5 uM after 24 hrs by propidium iodide staining based FACS analysis (reference value: 0.20%); type: functional
LNCaP [14] = experiment: Induction of cell cycle arrest in human LNCAP cells assessed as accumulation at G2 phase at 2.5 uM after 24 hrs by propidium iodide staining based FACS analysis (reference value: 1.08%); type: functional
LNCaP [15] = experiment: Induction of cell cycle arrest in human LNCAP cells assessed as accumulation at lesser G1 phase at 2.5 uM after 24 hrs by propidium iodide staining based FACS analysis (reference value: 1.59%); type: functional
LNCaP [16] = experiment: Inhibition of class 1 HDAC in human LNCAP cells assessed as acetylated histone H4 accumulation at 1.5 uM after 24 hrs by Western blot analysis; type: cell-based
[17] = Cytotoxicity against human A549 cells assessed as cell growth inhibition after 72 hrs by MTT assay; type: functional, cell-based; details: A549, 72 h
[18] = Cytotoxicity against human LNCAP cells assessed as cell growth inhibition after 72 hrs by MTT assay; type: functional, cell-based
[19] = Cytotoxicity against African green monkey Vero cells assessed as cell growth inhibition after 72 hrs by MTT assay; type: toxicity, cell-based; details: African green monkey (Chlorocebus sabaeus)
[20] = Cytotoxicity against human DU145 cells assessed as cell growth inhibition after 72 hrs by MTT assay; type: functional, cell-based; details: DU-145, 72 h
[21] = Cytotoxicity against human MCF7 cells assessed as cell growth inhibition after 72 hrs by MTT assay; type: functional, cell-based; details: MCF7, 72 h
[22] = Cytotoxicity against human HeLa cells assessed as cell growth inhibition after 72 hrs by MTT assay
LNCaP [23] = experiment: Inhibition of HDAC in human LNCAP cells assessed as down regulation of COX2 expression at 1.5 uM after 24 hrs by Western blot analysis; type: cell-based
[24] = biological target: T5, Protein deacetylase HDAC6 (Homo sapiens) (UniProt Q9UBN7); experiment: Inhibition of HDAC6 in human LNCAP cells assessed as acetylated tubulin accumulation in cytosol at 1.5 uM after 24 hrs by Western blot analysis; type: cell-based
T5 sequence (whole entry): T3 sequence (Q9UBN7 whole entry)

LNCaP [25] = experiment: Induction of cell cycle arrest in human LNCAP cells assessed as accumulation at G2 phase at 40 uM after 24 hrs by propidium iodide staining based FACS analysis (reference value: 1.08%); type: functional

Sequence of Histone deacetylase 3 (O15379 whole entry): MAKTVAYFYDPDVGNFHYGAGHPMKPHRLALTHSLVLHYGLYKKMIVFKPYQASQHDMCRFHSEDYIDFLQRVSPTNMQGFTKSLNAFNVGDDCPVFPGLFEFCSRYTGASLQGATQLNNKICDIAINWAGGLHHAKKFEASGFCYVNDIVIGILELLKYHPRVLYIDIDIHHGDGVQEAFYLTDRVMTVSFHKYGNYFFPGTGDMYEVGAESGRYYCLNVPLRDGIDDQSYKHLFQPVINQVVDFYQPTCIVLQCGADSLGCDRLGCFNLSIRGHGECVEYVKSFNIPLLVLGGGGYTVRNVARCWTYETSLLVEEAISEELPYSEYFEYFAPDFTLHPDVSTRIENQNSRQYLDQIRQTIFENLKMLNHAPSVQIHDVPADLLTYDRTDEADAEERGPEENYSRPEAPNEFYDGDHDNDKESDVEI
Sequence of Histone deacetylase 1 (Q13547 whole entry): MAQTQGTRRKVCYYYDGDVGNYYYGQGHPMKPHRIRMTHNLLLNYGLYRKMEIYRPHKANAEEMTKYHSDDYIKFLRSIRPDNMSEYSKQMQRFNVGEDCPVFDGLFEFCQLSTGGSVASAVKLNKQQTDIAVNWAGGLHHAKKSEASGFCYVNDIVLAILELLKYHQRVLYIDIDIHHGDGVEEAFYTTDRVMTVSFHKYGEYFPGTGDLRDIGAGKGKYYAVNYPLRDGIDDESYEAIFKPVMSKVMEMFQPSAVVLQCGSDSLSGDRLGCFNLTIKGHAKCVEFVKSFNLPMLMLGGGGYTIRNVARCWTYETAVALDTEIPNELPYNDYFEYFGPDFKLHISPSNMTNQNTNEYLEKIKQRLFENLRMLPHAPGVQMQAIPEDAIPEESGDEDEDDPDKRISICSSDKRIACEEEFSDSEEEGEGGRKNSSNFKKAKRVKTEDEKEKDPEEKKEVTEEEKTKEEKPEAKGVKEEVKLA
Sequence of Histone deacetylase 2 (Q92769 whole entry): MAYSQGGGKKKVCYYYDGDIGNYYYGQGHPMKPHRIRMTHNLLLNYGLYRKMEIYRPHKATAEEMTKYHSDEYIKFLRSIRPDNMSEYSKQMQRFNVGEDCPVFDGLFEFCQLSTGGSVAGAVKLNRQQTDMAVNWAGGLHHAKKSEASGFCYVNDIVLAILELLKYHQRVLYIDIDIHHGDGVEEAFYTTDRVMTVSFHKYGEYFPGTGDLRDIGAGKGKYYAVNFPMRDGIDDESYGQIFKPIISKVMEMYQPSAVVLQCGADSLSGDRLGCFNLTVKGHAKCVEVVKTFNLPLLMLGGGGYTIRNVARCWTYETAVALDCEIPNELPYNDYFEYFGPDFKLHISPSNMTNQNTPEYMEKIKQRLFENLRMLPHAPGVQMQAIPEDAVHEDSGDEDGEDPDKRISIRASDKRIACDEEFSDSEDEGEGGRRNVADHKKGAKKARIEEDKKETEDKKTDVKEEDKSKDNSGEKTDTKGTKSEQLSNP

inhibition [1] | IC50 (Histone deacetylase 1) | IC50 (Histone deacetylase 8) | IC50 (Histone deacetylase 3) | IC50 (Histone deacetylase 2) | IC50 [4] | SMILES | inhibition of growth at 100 µM [2] | IC50 [3] | Activity (LNCaP [6]) | Activity (LNCaP [7]) | Activity (LNCaP [8]) | Activity (LNCaP [9]) | inhibition (BEAS2B) | Activity (LNCaP [10]) | Activity (LNCaP [12]) | Activity (LNCaP [13]) | Activity (LNCaP [14]) | Activity (LNCaP [15]) | other results
40.6% | 111 nM | 116 nM | 59 nM | 302 nM | 22 nM | COc1ccc2c(c1)c(CC(=O)O)c(C)n2Cc1ccc(-c2cn(CCCCCCC(=O)NO)nn2)cc1 | 47.8% | 9900 nM |  |  |  |  |  |  |  |  |  |  | 
50.8% | 89 nM | 135 nM | 35 nM | 407 nM | 10 nM | COC(=O)Cc1c(C)n(Cc2ccc(-c3cn(CCCCCCC(=O)NO)nn3)cc2)c2ccc(OC)cc12 |  | 1670 nM |  |  |  |  | Active | 46.7% | 47.1% | 2.06% | 1.87% | 0.053% | inhibition (LNCaP [16]): Active; IC50 [17]: 8220 nM; IC50 [18]: 1350 nM; IC50 at 72 h [19]: 5820 nM; IC50 [20]: 8170 nM; IC50 [21]: 9610 nM; IC50 [22]: 4020 nM; inhibition (LNCaP [23]): Active; inhibition [24]: Active

Further lines, the compound ahead of its results:

SMILES | inhibition [1] | IC50 (Histone deacetylase 1) | IC50 (Histone deacetylase 8) | IC50 (Histone deacetylase 3) | IC50 (Histone deacetylase 2) | IC50 [4] | inhibition of growth at 100 µM [2] | IC50 [3] | Activity (LNCaP [6]) | Activity (LNCaP [7]) | Activity (LNCaP [8]) | Activity (LNCaP [9]) | inhibition (BEAS2B) | Activity (LNCaP [10]) | Activity (LNCaP [12]) | Activity (LNCaP [13]) | Activity (LNCaP [14]) | Activity (LNCaP [15]) | other results
COc1ccc2c(c1)c(CC(=O)O)c(C)n2C(=O)c1ccc(Cl)cc1 [INDOMETHACIN] |  |  |  |  |  |  | 5.2% |  | 0.88% | 2.81% | 23.5% | 71.5% |  |  |  |  |  |  | inhibition (LNCaP [5]): Active
Cc1ccc(-c2cc(C(=O)NCCCCCCC(=O)NO)nn2-c2ccc(S(C)(=O)=O)cc2)cc1 | 60.2% | 261 nM | 345 nM | 338 nM |  | 50 nM |  |  |  |  |  |  | Active | 85.9% | 13.8% | 0.21% | 0.5% | 0.029% | IC50 [11]: 4440 nM
Cc1ccc(-c2cc(C(F)(F)F)nn2-c2ccc(S(N)(=O)=O)cc2)cc1 [CELECOXIB] |  |  |  |  |  |  |  |  | 0.35% | 0.59% | 28.4% | 69.2% |  |  |  |  |  |  | Activity (LNCaP [25]): 0.85%
